From patent US20210171948A1, “COMPOSITIONS AND METHODS FOR TARGETING GLYPICAN-2 IN THE TREATMENT OF CANCER” (Shepherd Therapeutics, Inc., priority 2019, published 2021)

Experiments:
GPC2 mRNA [1] = test: GPC2 mRNA knockdown by qPCR in TC-32 Ewing's sarcoma cells transfected with siRNA (Example 2); format: cell-based, human; settings: TC-32 cells; 72 hours post transfection
Procedure: siRNAs 1-5 from Table 7 were diluted to 40 nM in OptiMEM media and mixed in a 1:3 ratio (weight by volume) with RNAiMAX. This was incubated for 15 minutes at room temperature and dispensed onto cells plated in a 6 well tissue culture plate. Total RNA samples were collected at either 72 hours post transfection to compare knockdown efficiency (FIG. 2A), or at 24, 48, 72 or 96 hours post transfection to determine the extent of GPC2 mRNA knockdown over time (FIG. 2B). Expression levels of mRNA of GPC2 were measured in these samples using primers specific for GPC2 obtained commercially from Thermofisher (Carlsbad, Calif.) and standard qPCR technique.

GPC2 mRNA [2] = test: GPC2 mRNA knockdown in cell lines of the cisplatin experiment (Example 5); format: cell-based, human
Procedure: (§1) GPC2 mRNA was reduced using the indicated siRNAs and changes in cell viability were assessed in multiple cancer cell lines, in combination with Cisplatin treatment. Cells were transfected with either a scrambled control siRNA or with GPC2 siRNA sequences 3 or 5 from Table 7 using the RNAiMAX Lipofectamine kit (Invitrogen, Carlsbad, Calif.), as previously described, in either in 96 well (for viability assays) or 6 well format (for total RNA). Cisplatin was added at increasing concentrations (0 to 30 uM) to transfected cells at 24 hours post transfection. Following a 72 hour incubation period, cell viability was measured using Cell Titer Glo 2.0. Total RNA samples were also isolated to measure knockdown efficiency.

COV362 cells = test: Cisplatin IC50 in siRNA-transfected cells, Cell Titer Glo 2.0 viability (Example 5); format: cell-based
Procedure: as §1

KELLY cells [3] = test: as above; format: cell-based; settings: KELLY cells transfected with the labelled siRNA; cisplatin added 24 hours post transfection, 72 hour incubation
Procedure: as §1

RH30 cells = test: as above; format: cell-based
Procedure: as §1

SK-N-BE2 cells = test: as above; format: cell-based; settings: SK-N-BE2 cells transfected with the labelled siRNA; cisplatin added 24 hours post transfection, 72 hour incubation
Procedure: as §1

SKNAS cells [4] = test: as above; format: cell-based
Procedure: as §1

TC71 cells = test: as above; format: cell-based
Procedure: as §1

CHLA-136 cells = test: Carboplatin IC50 in siRNA-transfected cells, Cell Titer Glo 2.0 viability (Example 6); format: cell-based
Procedure: (§2) GPC2 mRNA expression was reduced using the indicated siRNAs and changes in cell viability were assessed in multiple neuroblastoma cell lines. Cells were transfected with either a control siRNA or with GPC2 siRNA sequences 3, 5 or 7 from Table 7 using the RNAiMAX Lipofectamine kit (Invitrogen, Carlsbad, Calif.) as previously described in 96 wells for viability assays. Carboplatin was added at increasing concentrations (0 to 150 uM) to transfected cells at 24 hours post transfection. Following a 72 hour incubation period, viability measurements were made using Cell Titer Glo 2.0.

CHLA-172 cells = test: as above; format: cell-based
Procedure: as §2

KELLY cells [5] = test: as above; format: cell-based; settings: KELLY cells transfected with the labelled siRNA; carboplatin added 24 hours post transfection, 72 hour incubation
Procedure: as §2

SKNAS cells [6] = test: as above; format: cell-based
Procedure: as §2

GPC2 siRNA 3: siRNA duplex: sense CCUGCUUGGACCUCGAUAA[dT][dT] (SEQ ID NO: 207), anti-sense UUAUCGAGGUCCAAGCAGG[dT][dT] (SEQ ID NO: 208) (sense CCUGCUUGGACCUCGAUAANN; antisense UUAUCGAGGUCCAAGCAGGNN; 3' dTdT overhangs, chemistry not fully specified; listed as Homo sapiens)
Degree of GPC2 knockdown among siRNA sequences 1-5 (GPC2 mRNA [1]): greatest degree of GPC2 knockdown | % GPC2 knockdown (GPC2 mRNA [2]; CHLA-90 (Neuroblastoma)): 50% | % GPC2 knockdown (GPC2 mRNA [2]; CHLA-136 (Neuroblastoma)): 25% | % GPC2 knockdown (GPC2 mRNA [2]; CHLA-172 (Neuroblastoma)): 5% | % GPC2 knockdown (GPC2 mRNA [2]; CHP212 (Neuroblastoma)): 60% | % GPC2 knockdown (GPC2 mRNA [2]; COV362 (Ovarian cancer)): 85% | % GPC2 knockdown (GPC2 mRNA [2]; GIST-T1 (Gastrointestinal Stromal)): 55% | % GPC2 knockdown (GPC2 mRNA [2]; KELLY (Neuroblastoma)): 65% | % GPC2 knockdown (GPC2 mRNA [2]; RH30 (Rhabdomyosarcoma)): 80% | % GPC2 knockdown (GPC2 mRNA [2]; RH41 (Rhabdomyosarcoma)): 55% | % GPC2 knockdown (GPC2 mRNA [2]; SH-SY5Y (Neuroblastoma)): 55% | % GPC2 knockdown (GPC2 mRNA [2]; SK-N-BE2 (Neuroblastoma)): 55% | % GPC2 knockdown (GPC2 mRNA [2]; SKNAS (Neuroblastoma)): 40% | % GPC2 knockdown (GPC2 mRNA [2]; SNU16 (Gastric carcinoma)): 50% | % GPC2 knockdown (GPC2 mRNA [2]; TC32 (Ewing's sarcoma)): 70% | % GPC2 knockdown (GPC2 mRNA [2]; TC71 (Ewing's sarcoma)): 55% | % GPC2 knockdown (GPC2 mRNA [2]; TOV112D (Ovarian cancer)): 90% | Data Summary: effect of knockdown on sensitivity to cisplatin (COV362 cells; COV362): does not increase | IC50 (COV362 cells; COV362 cells transfected with the labelled siRNA, cisplatin added 24 hours post transfection, 72 hour incubation): 6.4 µM | IC50 (KELLY cells [3]): 21.7 µM | Data Summary: effect of knockdown on sensitivity to cisplatin (RH30 cells; RH30): does not increase | IC50 (RH30 cells; RH30 cells transfected with the labelled siRNA, cisplatin added 24 hours post transfection, 72 hour incubation): 2.1 µM | IC50 (SK-N-BE2 cells): 8 µM | Data Summary: effect of knockdown on sensitivity to cisplatin (SKNAS cells [4]; SKNAS): increases sensitivity to | IC50 (SKNAS cells [4]; SKNAS cells transfected with the labelled siRNA, cisplatin added 24 hours post transfection, 72 hour incubation): 20 µM | Data Summary: effect of knockdown on sensitivity to cisplatin (TC71 cells; TC71): does not increase | IC50 (TC71 cells; TC71 cells transfected with the labelled siRNA, cisplatin added 24 hours post transfection, 72 hour incubation): 1.3 µM | Data Summary: effect of knockdown on sensitivity to carboplatin (CHLA-136 cells; CHLA-136): not increase sensitivity | IC50 (CHLA-136 cells; CHLA-136 cells transfected with the labelled siRNA, carboplatin added 24 hours post transfection, 72 hour incubation): 47 µM | Data Summary: effect of knockdown on sensitivity to carboplatin (CHLA-172 cells; CHLA-172): increases sensitivity to | IC50 (CHLA-172 cells; CHLA-172 cells transfected with the labelled siRNA, carboplatin added 24 hours post transfection, 72 hour incubation): 100 µM | IC50 (KELLY cells [5]): 12 µM | Data Summary: effect of knockdown on sensitivity to carboplatin (SKNAS cells [6]; SKNAS): increases sensitivity to | IC50 (SKNAS cells [6]; SKNAS cells transfected with the labelled siRNA, carboplatin added 24 hours post transfection, 72 hour incubation): 40 µM
